One block for each compound: values may come before it. Activity calls are given as the source filed them.
Columns and labels:
[1] = IC50 of insulin release inhibition, rat insulinoma INS-1E line, 5 mM glucose, cell-based (AID 1117331); format: functional
[2] = molecular target: T1, RNA-binding protein pos-1 (Caenorhabditis elegans, UniProt G5EF15); assay: disruptors of C. elegans POS-1 RNA interaction – biochemical, fluorescence polarization, dose response (AID 1964);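 note: purified POS-1 fused to maltose binding protein made in E. coli; potency of compounds blocking POS-1 binding to fluorescent RNA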
T1 sequence (G5EF15 whole entry): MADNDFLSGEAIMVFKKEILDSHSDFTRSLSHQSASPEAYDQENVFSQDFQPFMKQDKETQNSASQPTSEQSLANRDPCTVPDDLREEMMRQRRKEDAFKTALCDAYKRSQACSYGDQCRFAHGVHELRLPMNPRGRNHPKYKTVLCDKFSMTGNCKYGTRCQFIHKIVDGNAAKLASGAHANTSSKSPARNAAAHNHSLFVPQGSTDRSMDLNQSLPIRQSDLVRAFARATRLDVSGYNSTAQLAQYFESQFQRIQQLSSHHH

[3] = molecular target: T2, Zinc finger protein mex-5 (Caenorhabditis elegans, UniProt Q9XUB2); assay: potency of MEX-5 RNA-binding blockers – biochemical, C. elegans, fluorescence polarization, dose response (AID 1960)
T2 sequence (Q9XUB2 whole entry): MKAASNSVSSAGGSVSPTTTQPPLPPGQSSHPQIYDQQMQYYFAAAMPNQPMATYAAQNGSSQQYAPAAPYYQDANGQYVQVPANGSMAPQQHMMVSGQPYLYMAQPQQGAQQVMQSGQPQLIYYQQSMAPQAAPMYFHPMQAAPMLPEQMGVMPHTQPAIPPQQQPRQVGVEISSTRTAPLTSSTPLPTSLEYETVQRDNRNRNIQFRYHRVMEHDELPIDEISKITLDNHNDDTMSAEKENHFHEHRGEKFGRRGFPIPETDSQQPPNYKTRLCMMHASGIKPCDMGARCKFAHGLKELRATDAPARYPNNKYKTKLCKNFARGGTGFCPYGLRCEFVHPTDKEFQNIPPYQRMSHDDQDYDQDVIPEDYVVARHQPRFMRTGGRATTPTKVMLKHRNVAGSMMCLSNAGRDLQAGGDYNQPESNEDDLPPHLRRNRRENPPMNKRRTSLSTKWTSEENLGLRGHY

[4] = viability loss in HepG2 hepatoma cells – cell-based, ATP luminescence, cherry-pick, activator set 2, cytotoxicity control, dose response (AID 1053143); format: functional
[5] = molecular target: SWI/SNF-related matrix-associated actin-dependent regulator of chromatin subfamily A member 2 (Homo sapiens, UniProt P51531); assay: Luminescence-based cell-based high throughput dose response assay to identify activators of the function of SWI/SNF related, matrix associated, actin dependent regulator of chromatin, subfamily a, member 2 (SMARCA2, BRM).; format: functional
[6] = Counterscreen for activators of the function of SWI/SNF related, matrix associated, actin dependent regulator of chromatin, subfamily a, member 2 (SMARCA2, BRM): Luminescence-based cell-based high throughput dose response assay to identify non-selective compounds using the VP16 reporter assay.; format: functional
[7] = molecular target: E3 ubiquitin-protein ligase UHRF1 (Homo sapiens, UniProt Q96T88); assay: Counterscreen for inhibitors of 5-meCpG-binding domain protein 2 (MBD2): TRFRET-based biochemical high throughput dose response assay to identify inhibitors of binding of ubiquitin-like with PHD and ring finger domains 1 (UHRF1) to methylated oligonucleotide.
E3 ubiquitin-protein ligase UHRF1, sequence (Q96T88 whole entry, the tested form may be a part): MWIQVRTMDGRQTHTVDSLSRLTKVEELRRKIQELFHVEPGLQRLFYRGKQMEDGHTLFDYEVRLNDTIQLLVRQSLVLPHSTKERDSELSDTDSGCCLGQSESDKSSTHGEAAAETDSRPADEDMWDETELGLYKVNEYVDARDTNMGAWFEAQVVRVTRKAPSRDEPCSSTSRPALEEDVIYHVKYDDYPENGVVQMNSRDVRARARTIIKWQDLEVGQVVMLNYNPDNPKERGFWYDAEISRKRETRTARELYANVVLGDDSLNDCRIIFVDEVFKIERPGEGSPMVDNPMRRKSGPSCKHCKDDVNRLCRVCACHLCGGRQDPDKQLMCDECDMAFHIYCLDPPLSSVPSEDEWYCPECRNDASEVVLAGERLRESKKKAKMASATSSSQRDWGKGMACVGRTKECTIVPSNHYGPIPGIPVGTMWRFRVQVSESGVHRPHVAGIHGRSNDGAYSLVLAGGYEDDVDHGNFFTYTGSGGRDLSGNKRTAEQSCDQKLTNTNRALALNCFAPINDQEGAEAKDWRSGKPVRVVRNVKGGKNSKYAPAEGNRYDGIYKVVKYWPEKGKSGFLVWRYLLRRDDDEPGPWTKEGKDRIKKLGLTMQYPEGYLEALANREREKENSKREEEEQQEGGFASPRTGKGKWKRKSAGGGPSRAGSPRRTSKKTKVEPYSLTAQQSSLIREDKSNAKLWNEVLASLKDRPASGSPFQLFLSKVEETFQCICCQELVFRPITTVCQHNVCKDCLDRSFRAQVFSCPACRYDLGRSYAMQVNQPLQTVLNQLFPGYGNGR

HEK293 [8] = assay: cells; conditions: Homo sapiens
HEK293 [9] = assay: cells; conditions: Homo sapiens; remark: listed apart in the source
[10] = molecular target: G-protein coupled receptor 183 (Homo sapiens, UniProt P32249); assay: SAR confirmation of small molecule antagonists of the EBI2 receptor via a luminescent beta-arrestin assa.; format: functional
G-protein coupled receptor 183, sequence (P32249 whole entry): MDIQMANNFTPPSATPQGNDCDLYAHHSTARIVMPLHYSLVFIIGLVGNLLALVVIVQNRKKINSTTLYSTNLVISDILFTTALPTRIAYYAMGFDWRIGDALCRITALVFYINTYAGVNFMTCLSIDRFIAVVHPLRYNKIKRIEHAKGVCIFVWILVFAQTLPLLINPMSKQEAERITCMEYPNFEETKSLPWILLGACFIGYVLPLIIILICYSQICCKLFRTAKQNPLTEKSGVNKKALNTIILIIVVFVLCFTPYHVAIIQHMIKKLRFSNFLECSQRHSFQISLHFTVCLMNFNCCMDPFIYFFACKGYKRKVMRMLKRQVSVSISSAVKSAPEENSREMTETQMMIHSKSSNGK

[11] = potency of ADAM10 substrate cleavage blockers – biochemical, QFRET, dose response (AID 743254);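 note: ADAM10 enzyme with the DM2 quenched FRET peptide as substrate; EDANS fluorescence gain as the protease cuts the substrate; inhibitor potency against ADAM10 proteolytic activity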
[12] = molecular target: T3, Disintegrin and metalloproteinase domain-containing protein 17 (Homo sapiens, UniProt P78536); assay: inhibition of ADAM17 substrate cleavage – biochemical, quenched FRET substrate, counter-screen for ADAM10 exosite inhibitor project, dose response (AID 743253)
T3 sequence (P78536 whole entry, the tested form may be a part): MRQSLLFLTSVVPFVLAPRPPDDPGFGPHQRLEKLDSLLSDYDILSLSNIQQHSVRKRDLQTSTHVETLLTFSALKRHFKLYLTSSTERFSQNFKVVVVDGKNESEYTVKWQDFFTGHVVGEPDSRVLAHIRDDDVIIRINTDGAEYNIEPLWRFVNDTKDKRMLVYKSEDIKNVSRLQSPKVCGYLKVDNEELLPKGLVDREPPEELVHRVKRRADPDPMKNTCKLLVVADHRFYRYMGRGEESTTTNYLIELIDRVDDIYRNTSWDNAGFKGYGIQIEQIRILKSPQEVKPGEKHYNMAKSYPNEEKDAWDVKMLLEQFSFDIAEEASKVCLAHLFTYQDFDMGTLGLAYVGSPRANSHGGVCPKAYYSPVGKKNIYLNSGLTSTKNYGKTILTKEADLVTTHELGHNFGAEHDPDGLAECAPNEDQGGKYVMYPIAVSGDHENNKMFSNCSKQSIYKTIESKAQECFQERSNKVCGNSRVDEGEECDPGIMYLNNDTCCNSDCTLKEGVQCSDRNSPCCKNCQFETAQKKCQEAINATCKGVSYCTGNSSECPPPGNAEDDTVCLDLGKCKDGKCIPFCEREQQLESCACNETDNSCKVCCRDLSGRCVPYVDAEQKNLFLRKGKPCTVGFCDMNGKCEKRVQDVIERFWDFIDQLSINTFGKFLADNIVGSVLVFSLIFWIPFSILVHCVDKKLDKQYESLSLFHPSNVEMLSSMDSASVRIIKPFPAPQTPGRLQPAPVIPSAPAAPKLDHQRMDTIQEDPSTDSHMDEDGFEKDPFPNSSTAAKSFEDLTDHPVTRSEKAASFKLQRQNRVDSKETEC

[13] = viability loss in HeLa cells – cytotoxicity control for MgcRacGAP inhibitor project, dose response (AID 624300); format: functional
[14] = molecular target: T4, Rac GTPase-activating protein 1 (Homo sapiens, UniProt Q9H0H5); assay: blockers of MgcRacGAP-driven Rac1 GTP hydrolysis – biochemical, ADP Hunter fluorescence, primary and confirmatory, confirmation (AID 624330); format: functional
T4 sequence (Q9H0H5 whole entry): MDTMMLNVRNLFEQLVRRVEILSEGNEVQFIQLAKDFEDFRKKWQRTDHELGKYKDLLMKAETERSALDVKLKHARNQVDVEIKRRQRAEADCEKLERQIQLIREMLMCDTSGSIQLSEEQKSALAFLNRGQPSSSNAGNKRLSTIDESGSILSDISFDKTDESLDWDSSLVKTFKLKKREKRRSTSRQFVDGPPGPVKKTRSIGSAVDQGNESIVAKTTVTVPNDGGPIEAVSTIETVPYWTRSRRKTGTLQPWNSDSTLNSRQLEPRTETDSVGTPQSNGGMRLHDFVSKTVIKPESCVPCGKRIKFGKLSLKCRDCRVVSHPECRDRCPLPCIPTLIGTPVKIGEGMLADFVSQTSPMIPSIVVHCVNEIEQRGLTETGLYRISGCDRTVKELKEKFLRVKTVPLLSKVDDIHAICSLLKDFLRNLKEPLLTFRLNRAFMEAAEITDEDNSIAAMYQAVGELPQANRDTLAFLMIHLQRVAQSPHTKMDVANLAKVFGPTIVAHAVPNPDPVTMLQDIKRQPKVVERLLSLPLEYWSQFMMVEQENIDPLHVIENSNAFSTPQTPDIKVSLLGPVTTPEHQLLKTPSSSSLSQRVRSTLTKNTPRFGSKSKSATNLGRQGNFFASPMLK

[15] = molecular target: COUP transcription factor 2 (Homo sapiens, UniProt P24468); assay: Luminescence-based cell-based high throughput dose response assay to identify inhibitors of COUP-TFII (NR2F2).; format: functional;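 note: HEK293 cells transiently cotransfected with COUP-TFII expression vector and reporter; luciferase reporter luminescence driven by COUP-TFII from the pX2-168 reporter plasmid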
COUP transcription factor 2, sequence (P24468 whole entry): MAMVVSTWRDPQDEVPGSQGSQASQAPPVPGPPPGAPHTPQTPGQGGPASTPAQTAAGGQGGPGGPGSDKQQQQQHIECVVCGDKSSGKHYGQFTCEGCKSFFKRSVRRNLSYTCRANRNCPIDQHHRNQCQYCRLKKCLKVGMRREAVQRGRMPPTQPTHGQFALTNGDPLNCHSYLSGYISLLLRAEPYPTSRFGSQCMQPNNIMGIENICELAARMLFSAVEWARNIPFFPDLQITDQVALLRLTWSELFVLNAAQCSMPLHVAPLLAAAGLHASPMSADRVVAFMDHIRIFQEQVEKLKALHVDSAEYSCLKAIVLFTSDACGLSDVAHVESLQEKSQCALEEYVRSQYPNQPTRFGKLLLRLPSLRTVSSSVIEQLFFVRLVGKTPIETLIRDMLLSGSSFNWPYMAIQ

Protein Tat = Protein Tat (Human immunodeficiency virus type 1 group M subtype B (isolate HXB2)(HIV-1), UniProt P04608); format: functional;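 note: tat binding to TAR RNA read out by fluorescence polarization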
Protein Tat, sequence (P04608 whole entry): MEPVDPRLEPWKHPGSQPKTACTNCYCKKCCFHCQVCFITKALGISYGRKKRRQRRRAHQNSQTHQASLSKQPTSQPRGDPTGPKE

[16] = growth inhibition of yeast DHODH-expressing 3D7 parasites – SYBR Green, dry powder samples, dose response (AID 1159570); format: functional, cell-based;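 note: parasite growth measured after 72 hours of compound exposure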
[17] = P. falciparum Dd2 growth inhibitors, dose response, SYBR Green, cherry-picked samples (AID 1159567); format: functional, cell-based
[18] = Dd2 malaria parasite growth inhibition potency – SYBR Green, dry powder samples, dose response (AID 1159566); format: functional, cell-based;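 note: potency for growth inhibition with lower SYBR green DNA signal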
[19] = growth inhibition of PfATP4-mutant resistant parasites – NITD609-resistant line, SYBR Green, dry powder, dose response (AID 1159571); format: functional, cell-based;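 note: parasites synchronized at ring stage by sorbitol before testing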
[20] = molecular target: T5, Microphthalmia-associated transcription factor (Homo sapiens, UniProt O75030); assay: reducers of TRPM1 reporter luminescence, concentration series – cell-based, SK-MEL-5, cherry-picked, set 3, MITF inhibitor project, dose response (AID 493073); format: functional;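 note: SK-MEL-5 melanoma cells with luciferase driven by the MITF target TRPM1 promoter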
T5 sequence (O75030 whole entry): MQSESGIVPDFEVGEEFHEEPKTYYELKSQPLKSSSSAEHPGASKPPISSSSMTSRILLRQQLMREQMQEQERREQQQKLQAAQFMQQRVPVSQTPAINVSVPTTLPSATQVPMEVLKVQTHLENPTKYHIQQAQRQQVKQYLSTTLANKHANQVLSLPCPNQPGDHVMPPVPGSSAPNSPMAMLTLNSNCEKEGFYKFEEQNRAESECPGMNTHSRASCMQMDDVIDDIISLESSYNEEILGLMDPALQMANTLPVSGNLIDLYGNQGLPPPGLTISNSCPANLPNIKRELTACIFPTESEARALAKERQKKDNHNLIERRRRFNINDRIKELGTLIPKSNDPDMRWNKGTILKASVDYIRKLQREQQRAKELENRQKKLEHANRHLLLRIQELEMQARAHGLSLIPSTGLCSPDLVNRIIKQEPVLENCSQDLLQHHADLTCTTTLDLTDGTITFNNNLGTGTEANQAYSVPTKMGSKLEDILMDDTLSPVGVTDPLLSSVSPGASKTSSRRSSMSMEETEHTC

[21] = reduced cellular PGC1a acetyl-lysine signal – cell-based, cherry-picked samples, dose response (AID 720514); format: functional;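 note: potency may reflect raised or lowered acetylation signal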
[22] = molecular target: Dual specificity tyrosine-phosphorylation-regulated kinase 1A (Rattus norvegicus, UniProt Q63470); format: biochemical, Homo sapiens
Paired box protein Pax-8 = Paired box protein Pax-8 (Homo sapiens, UniProt Q06710); assay: PAX8 transcriptional activity inhibition in RMG-I – RMG-I cells, luciferase, cherry-pick, dose response (AID 687027); format: functional, cell-based;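 note: luciferase reporter driven by Pax8 target thyroperoxidase promoter measured by SteadyGlo luminescence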
Paired box protein Pax-8, sequence (Q06710 whole entry): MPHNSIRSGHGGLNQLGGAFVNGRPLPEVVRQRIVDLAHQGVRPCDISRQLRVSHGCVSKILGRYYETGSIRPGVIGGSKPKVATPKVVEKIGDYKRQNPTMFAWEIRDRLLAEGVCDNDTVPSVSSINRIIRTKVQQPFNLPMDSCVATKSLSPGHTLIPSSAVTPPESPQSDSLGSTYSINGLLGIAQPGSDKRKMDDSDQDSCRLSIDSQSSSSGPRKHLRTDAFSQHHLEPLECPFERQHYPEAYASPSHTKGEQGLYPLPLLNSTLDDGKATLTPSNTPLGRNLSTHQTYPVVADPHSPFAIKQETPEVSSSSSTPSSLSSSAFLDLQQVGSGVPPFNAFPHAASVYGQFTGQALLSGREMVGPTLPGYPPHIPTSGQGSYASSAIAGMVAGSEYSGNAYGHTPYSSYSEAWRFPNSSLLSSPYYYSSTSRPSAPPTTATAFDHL

Mucolipin-3 = molecular target: T6, Mucolipin-3 (Homo sapiens, UniProt Q8TDD5); assay: Dose response cell-based high-throughput screening assay for agonists of the transient receptor potential channel ML3 (TRPML3). [Related pubchem assays: 1526, 1424, 1448 ]; format: functional
T6 sequence (Q8TDD5 whole entry): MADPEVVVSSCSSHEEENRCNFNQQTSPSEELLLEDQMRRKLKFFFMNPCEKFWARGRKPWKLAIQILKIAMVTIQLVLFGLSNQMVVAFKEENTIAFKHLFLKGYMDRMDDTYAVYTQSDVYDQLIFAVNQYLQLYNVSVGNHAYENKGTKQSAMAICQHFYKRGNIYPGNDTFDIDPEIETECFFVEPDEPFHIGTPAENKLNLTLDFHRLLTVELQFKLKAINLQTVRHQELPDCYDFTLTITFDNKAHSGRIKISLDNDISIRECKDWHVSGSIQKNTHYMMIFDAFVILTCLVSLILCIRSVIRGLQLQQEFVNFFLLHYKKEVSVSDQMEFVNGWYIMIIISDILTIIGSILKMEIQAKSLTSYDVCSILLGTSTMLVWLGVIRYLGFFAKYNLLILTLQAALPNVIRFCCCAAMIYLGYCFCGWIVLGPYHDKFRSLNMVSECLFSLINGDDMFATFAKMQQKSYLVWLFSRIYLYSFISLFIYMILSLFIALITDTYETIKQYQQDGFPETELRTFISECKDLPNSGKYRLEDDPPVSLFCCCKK

Ion channel NompC = Ion channel NompC (Danio rerio, UniProt Q7T1G6); assay: Fluorescence counterscreen assay for TRPML3 agonists: dose response cell-based high-throughput screening assay to identify agonists of the transient receptor potential channel N1 (TRPN1). [Related pubchem assays: 1526, 1424, 1448 ]; format: functional
Ion channel NompC, sequence (Q7T1G6 whole entry, the tested form may be a part): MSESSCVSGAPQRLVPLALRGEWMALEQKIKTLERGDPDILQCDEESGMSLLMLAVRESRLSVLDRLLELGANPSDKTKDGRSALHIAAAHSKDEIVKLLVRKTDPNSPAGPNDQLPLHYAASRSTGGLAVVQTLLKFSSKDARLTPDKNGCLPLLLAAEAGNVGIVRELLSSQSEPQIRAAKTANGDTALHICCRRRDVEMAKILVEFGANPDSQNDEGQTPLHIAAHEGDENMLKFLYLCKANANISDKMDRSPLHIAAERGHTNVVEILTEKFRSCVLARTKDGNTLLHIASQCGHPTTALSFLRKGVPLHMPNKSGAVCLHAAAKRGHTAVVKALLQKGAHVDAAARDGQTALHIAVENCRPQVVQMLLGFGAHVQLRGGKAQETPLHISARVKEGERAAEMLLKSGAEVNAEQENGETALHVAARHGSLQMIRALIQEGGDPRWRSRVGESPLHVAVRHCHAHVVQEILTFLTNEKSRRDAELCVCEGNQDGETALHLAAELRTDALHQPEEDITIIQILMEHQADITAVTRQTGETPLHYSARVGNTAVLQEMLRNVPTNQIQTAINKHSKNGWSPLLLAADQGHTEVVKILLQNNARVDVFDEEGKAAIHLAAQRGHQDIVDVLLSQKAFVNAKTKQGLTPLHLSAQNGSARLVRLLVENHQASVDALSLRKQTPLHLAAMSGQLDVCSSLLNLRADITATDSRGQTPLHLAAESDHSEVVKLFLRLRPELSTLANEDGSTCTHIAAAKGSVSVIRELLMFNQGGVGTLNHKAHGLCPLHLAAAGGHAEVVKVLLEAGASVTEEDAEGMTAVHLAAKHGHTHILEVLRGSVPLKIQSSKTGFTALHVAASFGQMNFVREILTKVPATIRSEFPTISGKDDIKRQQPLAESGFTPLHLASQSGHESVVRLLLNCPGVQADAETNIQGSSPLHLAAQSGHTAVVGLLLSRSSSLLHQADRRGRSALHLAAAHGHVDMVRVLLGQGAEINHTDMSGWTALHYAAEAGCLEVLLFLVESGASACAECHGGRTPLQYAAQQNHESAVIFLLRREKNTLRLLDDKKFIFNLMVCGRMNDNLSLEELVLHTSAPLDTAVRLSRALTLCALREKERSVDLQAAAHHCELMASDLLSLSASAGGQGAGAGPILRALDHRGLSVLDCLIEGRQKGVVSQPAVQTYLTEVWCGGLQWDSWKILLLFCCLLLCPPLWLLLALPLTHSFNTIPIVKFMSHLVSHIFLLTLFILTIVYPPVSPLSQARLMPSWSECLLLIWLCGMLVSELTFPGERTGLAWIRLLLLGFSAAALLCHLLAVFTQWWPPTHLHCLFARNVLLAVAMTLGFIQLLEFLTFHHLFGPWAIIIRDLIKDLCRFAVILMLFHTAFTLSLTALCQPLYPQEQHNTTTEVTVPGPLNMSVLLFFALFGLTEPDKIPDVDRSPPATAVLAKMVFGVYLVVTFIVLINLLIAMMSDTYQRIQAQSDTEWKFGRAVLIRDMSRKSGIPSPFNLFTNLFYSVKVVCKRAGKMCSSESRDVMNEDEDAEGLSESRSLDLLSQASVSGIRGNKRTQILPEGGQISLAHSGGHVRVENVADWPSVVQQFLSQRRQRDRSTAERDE

[23] = molecular target: T3, Disintegrin and metalloproteinase domain-containing protein 17; assay: exosite inhibitors of ADAM17, dose response, biochemical (AID 743260)

Structure (SMILES): COc1ccc(Cl)cc1C(=O)NCCc1ccc(S(=O)(=O)NC(=O)NC2CCCCC2)cc1 [GLYBURIDE]
IC50 [1]: 8.08 nM (active)

Structure (SMILES): O=c1c2ccccc2oc2ccc(NCCCn3ccnc3)cc12
EC50 [2]: 55.2 µM (active) | EC50 [3]: 50.5 µM (active) | AC50 [4]: > 52 µM (inactive)

Structure (SMILES): Clc1ccc2c(c1)-c1ccccc1C1=NCCN12
EC50 [5]: 4.65 µM (active) | EC50 [6]: > 91.3 µM (inactive) | IC50 [7]: > 43.8 µM (inactive) | EC50 (HEK293 [8]): > 59.5 µM (inactive) | EC50 (HEK293 [9]): > 59.5 µM (inactive)

Structure (SMILES): CCOc1cc(C2NN=C(c3ccc(C)cc3)S2)ccc1O (stereo not given)
CC50 [13]: 100 µM (active) | IC50 [14]: 112 µM (active) | AC50 [4]: > 52 µM (inactive)

Structure (SMILES): COc1ccc2c3c([nH]c2c1)[C@H](CO)N(C(=O)C1CCOCC1)CC31CCN(Cc2nccs2)CC1
AC50 [16]: 387 nM (active) | AC50 [17]: 2.43 µM (active) | AC50 [18]: 467 nM (active) | AC50 [19]: 384 nM (active)

Structure (SMILES): CCC(=O)N1CCN(c2ccc(Cl)cc2NC(=O)c2ccc([N+](=O)[O-])o2)CC1
AC50 [20]: 12.4 µM (active) | AC50 [21]: 29.4 µM (active)

Structure (SMILES): CN(C)CCNc1ccc(CO)c2sc3ccc(O)cc3c(=O)c12
AC50 [22]: 1.82 µM (active) | CC50 [13]: 36.1 µM (active) | IC50 [14]: 20.2 µM (active) | AC50 (Paired box protein Pax-8): 5.72 µM (active) | IC50 [7]: > 43.8 µM (inactive)

Second part, the compound after the results:

IC50 [10]: 28.7 nM (active)
Structure (SMILES): O=C(/C=C/c1ccc(Br)cc1)N1CCN(C(=O)c2cccc(B(O)O)c2)CC1

IC50 [11]: > 69.5 µM (inactive) | IC50 [12]: > 69.5 µM (inactive)
Structure (SMILES): CCn1nc(C(=O)OC(C(=O)c2c[nH]c3ccccc23)c2ccccc2)c2ccccc2c1=O (stereo not given)

IC50 [11]: 13.9 µM (inactive) | IC50 [12]: > 69.5 µM (inactive)
Structure (SMILES): OC(c1ccccc1)(c1nc(-c2ccc(Cl)cc2)cs1)C(F)(F)F (stereo not given)

IC50 [15]: 10 µM (inactive)
Structure (SMILES): CCc1cc(-c2nnn(CCC3COCCO3)c2CC)ccc1-c1cn(Cc2ccc3ccccc3c2)nn1 (stereo not given)

IC50 [14]: 26.9 µM (active) | IC50 (Protein Tat): 30.8 µM (inconclusive)
Structure (SMILES): CC1CCCC(/C=N/c2ccc(O)cc2)=C1O (stereo not given)

IC50 [10]: 52.1 nM (active)
Structure (SMILES): COc1cccc(S(=O)(=O)N2CCN(C(=O)/C=C/c3ccc(F)cc3)CC2)c1

EC50 (Mucolipin-3): 2.76 µM (active) | EC50 (Ion channel NompC): > 29.9 µM (not active) | IC50 [23]: > 69.5 µM (inactive)
Structure (SMILES): C=C(C)CN1CCN(S(=O)(=O)c2ccc(C)c(N(C)S(=O)(=O)c3ccc(C)cc3)c2C)CC1

— ChEMBL document CHEMBL1201862, “PubChem BioAssay data set” (2004)
